Values after ≈ are worked out from the molar mass of the structure shown. Like-named read-outs stand apart in the source and are kept apart here.
Legend:
[1] = system: Neisseria gonorrhoeae; experiment: Broth microdilution MIC assay, 30 isolates (Example 2); type: cell-based
Description: In this study, the in vitro spectrum of activity of CBD was determined against 30 isolates comprised of reference strains from the WHO, isolates from the CDC antibiotic resistance bank, and clinical isolates from the Micromyx (MMX) repository, with different resistance phenotypes. Assays were conducted following guidelines recommended by the Clinical and Laboratory Standards Institute (CLSI; 1, 2) with the exception that broth microdilution was used instead of agar dilution.
Stock solutions of all compounds were prepared on the day of testing using solvents recommended by CLSI. Stock solutions of all compounds were made at 101× the final testing concentration. CBD was supplied by Cerilliant (Round Rock, Tex.) as a 1 mg/mL methanolic solution which was stored at −20° C. after receipt. Prior to testing, using a 5 mL aliquot of the CBD methanolic solution, the methanol was dried off and the residual CBD was resuspended in 774 μL DMSO resulting in a 6.464 mg/mL solution.
The test organisms evaluated in this study consisted of Neisseria gonorrhoeae isolates from the Micromyx repository and reference isolates from the American Type Culture Collection (ATCC; Manassas, Va.), Centers for Disease Control and Prevention (CDC; Atlanta, Ga.) or the National Collection of Type Cultures (NCTC; Public Health England, Salisbury, UK). Upon initial receipt at Micromyx, the organisms were sub-cultured onto an appropriate agar medium.
(§1) Following incubation, colonies were harvested from these plates and cell suspensions prepared and frozen at −80° C. with a cryoprotectant. Prior to testing, N. gonorrhoeae isolates were streaked onto Chocolate Agar [Becton Dickinson, (BD), Sparks, Md.; Lot No. 922807]; Staphylococcus aureus ATCC 29213 tested for quality control (QC) purposes was streaked onto Trypticase Soy Agar with 5% Sheep Blood (TSA II; BD; Lot No. 9219399).
For N. gonorrhoeae, a modified medium described by the ATCC as capable of supporting the growth of N. gonorrhoeae (Neisseria peptone medium) was used for the broth microdilution MIC assay. This medium contained 15 g Oxoid Special Peptone (Lot No. 1280296; Oxoid, Hampshire, UK), 1 g corn starch (Lot No. AD-13344-14; Ward's Science; Rochester, N.Y.), 5 g NaCl (Lot No. 57897; VWR, Radnor, Pa.), 4 g K2HPO4 (Lot No. SLBT7061; Sigma), and 1 g KH2PO4 (Lot No. SLBC1921V; Sigma). After autoclaving, the medium was centrifuged at 5,000×g for 10 min, the supernatant was passed through a 0.45 μm filter, and IsoVitaleX supplement (Lot No. 8323954; BD) was added at 1% (v/v).
(§2) MIC values were determined using a broth microdilution procedure described by CLSI (1, 2). Automated liquid handlers (Multidrop 384, Labsystems, Helsinki, Finland; Biomek 2000 and Biomek FX, Beckman Coulter, Fullerton Calif.) were used to conduct serial dilutions and liquid transfers.
(§3) To prepare the drug mother plates, which would provide the serial drug dilutions for the replicate daughter plates, the wells of columns 2 through 12 of standard 96-well microdilution plates (Costar 3795) were filled with 150 μl of the designated diluent for each row of drug. The test articles and comparator compounds (300 μl at 100× the highest concentration to be tested) were dispensed into the appropriate wells in column 1. The Biomek 2000 was then used to make 2-fold serial dilutions in the mother plates from column 1 through column 11. The wells of column 12 contained no drug and served as the organism growth control wells for the assay.
(§4) The daughter plates were loaded with 190 μL per well of the appropriate test medium for the tested organism using the Multidrop 384. The daughter plates were completed on the Biomek FX instrument which transferred 2 μL of drug solution from each well of a mother plate to the corresponding well of each daughter plate in a single step. Daughter plates for the testing of anaerobes were allowed to pre-reduce in the Bactron II anaerobe chamber for 2 hr prior to inoculation.

[2] = system: Staphylococcus aureus ATCC 29213; experiment: Broth microdilution MIC assay, quality control strain (Example 2); type: cell-based; details: ATCC29213, S. aureus ATCC 29213 (QC), CAMHB
Description: as §1
Cation-adjusted Mueller Hinton broth (CAMHB; BD; Lot No. 9019592) was used for MIC testing of S. aureus ATCC 29213 for QC purposes.
as §2, §3, §4
A standardized inoculum of each test organism was prepared per CLSI methods (1, 2). The inoculum for each organism was dispensed into sterile reservoirs divided by length (Beckman Coulter), and the Biomek 2000 was used to inoculate the plates. Daughter plates were placed on the Biomek 2000 work surface in reverse orientation so that inoculation took place from low to high drug concentration. Anaerobic organisms were inoculated by hand in the Bactron II anaerobic chamber. Bacterial plates were then inoculated with 10 μL of the inoculum resulting in a final cell density of approximately 5×10^5 CFU/mL.
Plates were stacked 3 to 4 high, covered with a lid on the top plate and placed in plastic bags. […] The MIC was read and recorded as the lowest concentration of drug that inhibited visible growth of the organism.

[3] = system: Staphylococcus aureus ATCC 29213; details: S. aureus ATCC 29213, CLSI QC ranges shown in parentheses, cited from earlier work
[4] = 30 isolates of N. gonorrhoeae, broth microdilution
[5] = 30 isolates of N. gonorrhoeae, broth microdilution, MIC distribution
[6] = 30 isolates, broth dilution assay, MIC distribution (Table 6)

With `CO/N=C(\C(=O)N[C@@H]1C(=O)N2C(C(=O)O)=C(CSc3nc(=O)c(=O)[nH]n3C)CS[C@H]12)c1csc(N)n1` [CRO, ceftriaxone] the MIC50 [1, 4] was at most 0.008 µg/mL, the “MIC Range” value [1, 4] was ≤0.008 − 1 μg/mL and the “Number of isolates at MIC value 0.015 μg/mL” value [1, 5] was 5. For the same compound, the “Number of isolates at MIC value 0.03 μg/mL” value [1, 5] was 2, the “Number of isolates at MIC value 0.06 μg/mL” value [1, 5] was 1 and the “Number of isolates at MIC value 0.5 μg/mL” value [1, 5] was 1. For the same compound, the “Number of isolates at MIC value 1 μg/mL” value [1, 5] was 1, the “Number of isolates at MIC value 2 μg/mL” value [1, 5] was 0 and the “Number of isolates at MIC value 4 μg/mL” value [1, 5] was 0. For the same compound, the “Number of isolates at MIC value 8 μg/mL” value [1, 5] was 0, the “Number of isolates at MIC value <0.008 μg/mL” value [1, 5] was 20 and the “Number of isolates at MIC value >8 μg/mL” value [1, 5] was 0. The “Number of isolates at MIC value […]” value [1, 5] was 0, the “MIC Range” value ([1]; 30 isolates of N. gonorrhoeae, broth microdilution, listed as ceftriaxone) was at most 0.008 to 1 µg/mL and the “Number of isolates at MIC 0.08 μg mL^−1” value [1, 6] was 0. For the same compound, the “Number of isolates at MIC ≤0.004 μg mL^−1” value [1, 6] was 20, the MIC ([1]; N. gonorrhoeae ATCC 49226 (QC), broth microdilution) was “£0.008 μg/mL” and the MIC ([1]; Neisseria gonorrhoeae, ATCC49226, N. gonorrhoeae ATCC 49226 (QC), broth microdilution, read-out: MIC) was at most 0.008 µg/mL. It also gave an MIC ([1]; Neisseria gonorrhoeae, N. gonorrhoeae CDC 0165 (CIP-R, AZI MIC 1), broth microdilution, read-out: MIC) of 0.015 µg/mL (≈ 0.027 µM), an MIC ([1]; Neisseria gonorrhoeae, N. gonorrhoeae CDC 0166 (CIP-R, AZI MIC 1), broth microdilution, read-out: MIC) of 0.015 µg/mL (≈ 0.027 µM) and an MIC ([1]; Neisseria gonorrhoeae, N. gonorrhoeae CDC 0167 (CIP-S, AZI MIC 8), broth microdilution, read-out: MIC) of at most 0.008 µg/mL. The MIC ([1]; Neisseria gonorrhoeae, N. gonorrhoeae CDC 0172 (CIP-R, AZI MIC 0.5), broth microdilution, read-out: MIC) was at most 0.008 µg/mL, the MIC ([1]; Neisseria gonorrhoeae, N. gonorrhoeae CDC 0175 (CIP-S, AZI MIC 16), broth microdilution, read-out: MIC) was at most 0.008 µg/mL and the MIC ([1]; Neisseria gonorrhoeae, N. gonorrhoeae CDC 0177 (CIP-S, AZI MIC 2), broth microdilution, read-out: MIC) was at most 0.008 µg/mL. The MIC ([1]; Neisseria gonorrhoeae, N. gonorrhoeae CDC 0181 (CIP-S, AZI MIC 256), broth microdilution, read-out: MIC) was at most 0.008 µg/mL, the MIC ([1]; Neisseria gonorrhoeae, N. gonorrhoeae CDC 0194 (CRO-NS, CIP-S, AZI MIC 0.5), broth microdilution, read-out: MIC) was 0.03 µg/mL (≈ 0.0541 µM) and the MIC ([1]; Neisseria gonorrhoeae, N. gonorrhoeae MMX 6921 (CIP-R), broth microdilution, read-out: MIC) was at most 0.008 µg/mL. The MIC ([1]; Neisseria gonorrhoeae, N. gonorrhoeae MMX 6938 (CIP-S), broth microdilution, read-out: MIC) was at most 0.008 µg/mL, the MIC ([1]; Neisseria gonorrhoeae, N. gonorrhoeae MMX 10409 (CIP-R), broth microdilution, read-out: MIC) was 0.015 µg/mL (≈ 0.027 µM) and the MIC ([1]; Neisseria gonorrhoeae, N. gonorrhoeae MMX 10410 (CIP-S), broth microdilution, read-out: MIC) was at most 0.008 µg/mL. The MIC ([1]; Neisseria gonorrhoeae, N. gonorrhoeae MMX 10447 (CIP-S), broth microdilution, read-out: MIC) was at most 0.008 µg/mL, the MIC ([1]; Neisseria gonorrhoeae, N. gonorrhoeae MMX 10450 (CIP-S), broth microdilution, read-out: MIC) was at most 0.008 µg/mL and the MIC ([1]; Neisseria gonorrhoeae, N. gonorrhoeae MMX 10452 (CIP-R), broth microdilution, read-out: MIC) was at most 0.008 µg/mL. It also gave an MIC ([1]; Neisseria gonorrhoeae, N. gonorrhoeae MMX 10454 (CIP-R), broth microdilution, read-out: MIC) of 0.015 µg/mL (≈ 0.027 µM), an MIC ([1]; Neisseria gonorrhoeae, NCTC13477, N. gonorrhoeae NCTC 13477 (WHO F; CIP-S, AZI MIC […]), broth microdilution, read-out: MIC) of at most 0.008 µg/mL and an MIC ([1]; Neisseria gonorrhoeae, NCTC13478, N. gonorrhoeae NCTC 13478 (WHO G; CIP-I, AZI MIC […]), broth microdilution, read-out: MIC) of at most 0.008 µg/mL. It also gave an MIC ([1]; Neisseria gonorrhoeae, NCTC13479, N. gonorrhoeae NCTC 13479 (WHO K; CIP-R, AZI MIC […]), broth microdilution, read-out: MIC) of 0.03 µg/mL (≈ 0.0541 µM), an MIC ([1]; Neisseria gonorrhoeae, NCTC13480, N. gonorrhoeae NCTC 13480 (WHO L; CIP-R, AZI MIC 0.5), broth microdilution, read-out: MIC) of 0.06 µg/mL (≈ 0.108 µM) and an MIC ([1]; Neisseria gonorrhoeae, NCTC13481, N. gonorrhoeae NCTC 13481 (WHO M; CIP-R, AZI MIC […]), broth microdilution, read-out: MIC) of at most 0.008 µg/mL. The MIC ([1]; Neisseria gonorrhoeae, NCTC13482, N. gonorrhoeae NCTC 13482 (WHO N; CIP-R, AZI MIC […]), broth microdilution, read-out: MIC) was at most 0.008 µg/mL, the MIC ([1]; Neisseria gonorrhoeae, NCTC13483, N. gonorrhoeae NCTC 13483 (WHO O; CIP-S, AZI MIC […]), broth microdilution, read-out: MIC) was at most 0.008 µg/mL and the MIC ([1]; Neisseria gonorrhoeae, NCTC13484, N. gonorrhoeae NCTC 13484 (WHO P; CIP-S, AZI MIC 4), broth microdilution, read-out: MIC) was at most 0.008 µg/mL. It also gave an MIC ([1]; Neisseria gonorrhoeae, NCTC13817, N. gonorrhoeae NCTC 13817 (WHO U; CIP-S, AZI MIC 4), broth microdilution, read-out: MIC) of at most 0.008 µg/mL, an MIC ([1]; Neisseria gonorrhoeae, NCTC13818, N. gonorrhoeae NCTC 13818 (WHO V; CIP-R, AZI MIC >256), broth microdilution, read-out: MIC) of at most 0.008 µg/mL and an MIC ([1]; Neisseria gonorrhoeae, NCTC13819, N. gonorrhoeae NCTC 13819 (WHO W; CIP-R, AZI MIC 0.5), broth microdilution, read-out: MIC) of 0.015 µg/mL (≈ 0.027 µM). The MIC ([1]; Neisseria gonorrhoeae, NCTC13820, N. gonorrhoeae NCTC 13820 (WHO X; CRO-NS, CIP-R, AZI MIC 0.5), broth microdilution, read-out: MIC) was 1 µg/mL (≈ 1.8 µM), the MIC ([1]; Neisseria gonorrhoeae, NCTC13821, N. gonorrhoeae NCTC 13821 (WHO Y; CIP-R, AZI MIC 1), broth microdilution, read-out: MIC) was 0.5 µg/mL (≈ 0.902 µM) and the MIC50 ([1]; Neisseria gonorrhoeae, 30 isolates of N. gonorrhoeae, broth microdilution, read-out: MIC50) was at most 0.008 µg/mL. The MIC90 ([1]; Neisseria gonorrhoeae, 30 isolates of N. gonorrhoeae, broth microdilution, read-out: MIC90) was 0.03 µg/mL (≈ 0.0541 µM), the MIC ([1]; Neisseria gonorrhoeae, 30 isolates of N. gonorrhoeae, broth microdilution, read-out: MIC Mode) was at most 0.008 µg/mL and the MIC [2] was 2 µg/mL (≈ 3.61 µM). For the same compound, the “CLSI QC range of MIC” value [3] was 1 to 8 µg/mL and the “CLSI QC range of MIC” value ([3]; listed as Ceftriaxone) was “(1-8)^1 μg/mL”.
